Source: article PMC9571264 (Molecules, 2022)
Values after ≈ are worked out from the molar mass of the structure shown. Where two headings read alike, the source gives them in different places. One block for each compound: values may come before it.

Legend:
Leukemia Cancer HL60 = experiment: MTT cytotoxicity assay, HL60; type: cell-based; conditions: Homo sapiens, HL-60, 48 h, read-out: IC50 (µM) ± SEM, Leukemia Cancer HL60
Description: (§1) Cytotoxic activities of the synthesized derivatives were screened against leukemia (HL60), liver (HepG2), breast (MCF-7), and lung (A549) cancer cell lines and non-cancerous THLE2 and WISH cells at different concentrations [0.01–100 µM] for 48 h using the MTT assay (Table 1).
(§2) Human promyelocytic leukemia ”HL-60”, human hepatocellular carcinoma “HepG2”, human breast cancer “MCF-7”, human lung cancer “A549” cell lines, and two normal cell lines, THLE-2 as normal adult liver epithelial cells and WISH as normal epithelial cells, were obtained from American Type Culture Collection “Rockville, MD, USA”.
(§3) According to the manufacturer’s protocol, the cells were seeded in 96-well plates at a concentration of 5 × 10^4 cells per well (200 µL). Different concentrations of the tested compounds were used to test the cytotoxicity. […] A non-linear regression of curve fit was used to calculate the IC50.

Liver Cancer HepG2 = experiment: MTT cytotoxicity assay, HepG2; type: cell-based, human; conditions: read-out: IC50 (µM) ± SEM, Liver Cancer HepG2
Description: as §1, §2, §3

Breast Cancer MCF-7 = experiment: MTT cytotoxicity assay, MCF-7; type: cell-based; conditions: Homo sapiens, MCF7, 48 h, read-out: IC50 (µM) ± SEM, Breast Cancer MCF-7
Description: as §1, §2, §3

Lung Cancer A549 = experiment: MTT cytotoxicity assay, A549; type: cell-based; conditions: Homo sapiens, 48 h, read-out: IC50 (µM) ± SEM, Lung Cancer A549
Description: as §1, §2, §3

Normal Liver THLE2 = experiment: MTT cytotoxicity assay, normal THLE2; type: cell-based; conditions: Homo sapiens, THLE-2, 48 h, read-out: IC50 (µM) ± SEM, Normal Liver THLE2
Description: as §1, §2, §3

HepG2 [1] = conditions: ref [37]; cited from earlier work
leukemia CCRF-CEM = test system: leukemia CCRF-CEM; set-up: method as in PMID 21439691; conditions: ref [39]; cited from earlier work
[2] = test system: non-small-cell lung cancer HOP-92; set-up: method as in PMID 21439691; conditions: ref [39]; cited from earlier work
colon cancer HCC-2998 = test system: colon cancer HCC-2998; set-up: method as in PMID 21439691; conditions: ref [39]; cited from earlier work
[3] = test system: promyelocytic leukemia cell line (HL60); set-up: method as in PMID 19322800; conditions: ref [38]; cited from earlier work
HepG2 [4] = test system: HepG2; set-up: method as in PMID 24148965, PMID 26890810; conditions: ref [41],[43]; read-out: IC50 on HepG2 (apoptotic effect); cited from earlier work

Compound: Cc1cc(=O)oc2cc(O)ccc12 [Compound 3, 7-Hydroxy-4-methylcoumarin]
IC50 (Leukemia Cancer HL60): 42.55 ± 0.22 µM | IC50 (Liver Cancer HepG2; Homo sapiens, HepG2, 48 h): 95.7 ± 1.13 µM | IC50 (Breast Cancer MCF-7): 29.3 ± 1.02 µM | IC50 (Lung Cancer A549): 16.5 ± 1.98 µM

Compound: O=C(O)/C=C/c1ccccc1 [Compound 6, cinnamic acid]
IC50 (Leukemia Cancer HL60): 88.21 ± 0.51 µM | IC50 (Liver Cancer HepG2; Homo sapiens, HepG2, 48 h): 36.58 ± 0.19 µM | IC50 (Breast Cancer MCF-7): 28.6 ± 0.91 µM | IC50 (Lung Cancer A549): 27.6 ± 1.95 µM

melting point: 96 °C
Compound: Cc1cc(=O)oc2cc(OC(=O)/C=C/c3ccccc3)ccc12 [Compound 8a, (2E)-4-Methyl-2-oxo-2H-chromen-7-yl Cinnamate]
IC50 (Leukemia Cancer HL60): 34.8 ± 0.64 µM | IC50 (Liver Cancer HepG2; 48 h): 75.2 ± 1.39 µM | IC50 (Breast Cancer MCF-7): 39.3 ± 1.69 µM | IC50 (Lung Cancer A549): 19.6 ± 0.89 µM

melting point: 170 °C
Compound: Cc1c(Br)c(=O)oc2cc(OC(=O)/C=C/c3ccccc3)ccc12 [Compound 8c, (2E)-3-bromo-4-methyl-2-oxo-2H-chromen-7-yl cinnamate]
IC50 (Leukemia Cancer HL60): 48.1 ± 0.88 µM | IC50 (Liver Cancer HepG2; Homo sapiens, HepG2, 48 h): 17.4 ± 0.19 µM | IC50 (Breast Cancer MCF-7): 67.3 ± 2.03 µM | IC50 (Lung Cancer A549): 24.3 ± 0.37 µM | IC50 (Normal Liver THLE2): 124 ± 2.12 µM

Compound: C/C(=N\NC(=O)COc1ccc2c(C)cc(=O)oc2c1)c1ccc(Cl)cc1 [III]
IC50 against HepG2 (HepG2 [1]): 2.84 ± 0.48 µg/mL (≈ 7.38 µM)

Compound: Cc1cc(=O)oc2cc(OCC(=O)N/N=C/c3ccc(Br)cc3)ccc12 [IV]
IC50 against HepG2 (HepG2 [1]): 4.67 ± 0.78 µg/mL (≈ 11.2 µM)

Compound: CN[C@@H]1C[C@H]2O[C@@](C)([C@@H]1OC)n1c3ccccc3c3c4c(c5c6ccccc6n2c5c31)C(=O)NC4 [Staurosporine, reference compound]
IC50 (Breast Cancer MCF-7): 3.06 ± 0.42 µM | IC50 (Lung Cancer A549): 3.7 ± 0.09 µM

Compound: CC(=O)c1cc2c(C)cc(=O)oc2cc1OCCN1CCOCC1 [VI]
GI, leukemia CCRF-CEM (leukemia CCRF-CEM): 627.1 µM | GI, non-small-cell lung cancer HOP-92 [2]: 237.8 µM | GI, colon cancer HCC-2998 (colon cancer HCC-2998): 341.4 µM

Compound: Cc1cc(=O)oc2cc(OC(C)/C=C/C3=CC(=O)C(C)(C)O3)ccc12 (centres unmarked) [V]
GI50 [3]: 0.5 ± 0.02 µM

Compound: O=C/C=C/c1ccccc1 [cinnamaldehyde]
IC50 (HepG2 [4]): 9.76 ± 0.67 µM

Compound: COc1cccc2c1C(=O)c1c(O)c3c(c(O)c1C2=O)C[C@@](O)(C(=O)CO)C[C@@H]3O[C@H]1C[C@H](N)[C@H](O)[C@H](C)O1 [doxorubicin]
IC50 against HepG2 (HepG2 [1]): 2.11 ± 0.13 µg/mL (≈ 3.88 µM)
